In publication PMC5218480 (PLoS ONE, 2017):

Tested on: MV-4-11 cells
Test: Gene expression microarray analysis (Affymetrix PrimeView) and GSEA
Type: cell-based, human
Set-up: RFU PODN (11730768_x_at) / Fold change /veh PODN (11730768_x_at) / RFU LINC00158 (11744669_a_at) / Fold change /veh LINC00158 (11744669_a_at) / RFU DUSP10 (11751237_a_at) / Fold change /veh DUSP10 (11751237_a_at) / RFU ID3 (11757404_x_at) / Fold change /veh ID3 (11757404_x_at) / RFU PLEKHG5 (11737974_s_at) / Fold change /veh PLEKHG5 (11737974_s_at) / RFU LRRC4B (11730491_at) / Fold change /veh LRRC4B (11730491_at) / RFU GIMAP4 (11747438_a_at) / Fold change /veh GIMAP4 (11747438_a_at) / RFU KRT8 (11758183_x_at) / Fold change /veh KRT8 (11758183_x_at) / RFU CNN1 (11734310_a_at) / Fold change /veh CNN1 (11734310_a_at) / RFU VPS37D (11726825_at) / Fold change /veh VPS37D (11726825_at) / RFU C10orf10 (11716522_x_at) / Fold change /veh C10orf10 (11716522_x_at) / RFU KIR2DL2 /// KIR2DL4 /// KIR2DL5A /// KIR2DL5B /// KIR2DS1 /// KIR2DS2 /// KIR2DS3 /// KIR2DS4 /// KIR3DL3 /// KIR3DL3 /// KIR3DS1 (11738374_at) / Fold change /veh KIR2DL2 /// KIR2DL4 /// KIR2DL5A /// KIR2DL5B /// KIR2DS1 /// KIR2DS2 /// KIR2DS3 /// KIR2DS4 /// KIR3DL3 /// KIR3DL3 /// KIR3DS1 (11738374_at) / RFU C1QL1 (11718748_at) / Fold change /veh C1QL1 (11718748_at) / RFU TMPRSS4 (11747572_a_at) / Fold change /veh TMPRSS4 (11747572_a_at) / RFU HAMP (11756126_x_at) / Fold change /veh HAMP (11756126_x_at) / RFU RNFT2 (11725882_a_at) / Fold change /veh RNFT2 (11725882_a_at) / RFU NR4A2 (11747474_a_at) / Fold change /veh NR4A2 (11747474_a_at) / RFU ABCC12 (11746883_a_at) / Fold change /veh ABCC12 (11746883_a_at) / RFU TMEM136 (11760407_x_at) / Fold change /veh TMEM136 (11760407_x_at) / RFU CLDN22 /// WWC2 (11732394_at) / Fold change /veh CLDN22 /// WWC2 (11732394_at) / RFU HLA-DPB1 (11760878_x_at) / Fold change /veh HLA-DPB1 (11760878_x_at) / RFU SPINT1 (11716480_a_at) / Fold change /veh SPINT1 (11716480_a_at) / RFU GAP43 (11754022_s_at) / Fold change /veh GAP43 (11754022_s_at) / RFU A4GNT (11735810_at) / Fold change /veh A4GNT (11735810_at) / RFU PRB3 (11715151_x_at) / Fold change /veh PRB3 (11715151_x_at) / RFU TUBB4B (11761932_at) / Fold change /veh TUBB4B (11761932_at) / RFU CAPN14 (11732068_a_at) / Fold change /veh CAPN14 (11732068_a_at) / RFU TMCC2 (11721928_a_at) / Fold change /veh TMCC2 (11721928_a_at) / RFU IRGQ (11745062_a_at) / Fold change /veh IRGQ (11745062_a_at) / RFU FAM174B (11720279_a_at) / Fold change /veh FAM174B (11720279_a_at) / RFU TMPRSS4 (11748680_a_at) / Fold change /veh TMPRSS4 (11748680_a_at) / RFU FAM212B (11763350_a_at) / Fold change /veh FAM212B (11763350_a_at) / RFU PLEKHG5 (11743358_a_at) / Fold change /veh PLEKHG5 (11743358_a_at) / RFU ZSCAN30 (11745921_a_at) / Fold change /veh ZSCAN30 (11745921_a_at) / RFU CMKLR1 (11741424_a_at) / Fold change /veh CMKLR1 (11741424_a_at) / RFU LOC101060620 /// MAPK8IP1 (11723275_at) / Fold change /veh LOC101060620 /// MAPK8IP1 (11723275_at) / RFU SPTSSB (11747773_x_at) / Fold change /veh SPTSSB (11747773_x_at) / RFU PRSS12 (11739890_at) / Fold change /veh PRSS12 (11739890_at) / RFU BIN1 (11741810_x_at) / Fold change /veh BIN1 (11741810_x_at) / RFU WNT11 (11732464_a_at) / Fold change /veh WNT11 (11732464_a_at) / RFU C10orf10 (11716521_a_at) / Fold change /veh C10orf10 (11716521_a_at) / RFU C5orf56 (11738089_at) / Fold change /veh C5orf56 (11738089_at) / RFU CYB561 (11721691_x_at) / Fold change /veh CYB561 (11721691_x_at) / RFU ANKRD19P (11752326_a_at) / Fold change /veh ANKRD19P (11752326_a_at) / RFU OR2T12 /// OR2T33 /// OR2T8 (11738714_s_at) / Fold change /veh OR2T12 /// OR2T33 /// OR2T8 (11738714_s_at) / RFU VCAN (11748164_a_at) / Fold change /veh VCAN (11748164_a_at) / RFU JSRP1 (11732532_at) / Fold change /veh JSRP1 (11732532_at) / RFU KRTAP10-11 (11738290_x_at) / Fold change /veh KRTAP10-11 (11738290_x_at) / RFU MYO3A (11730013_a_at) / Fold change /veh MYO3A (11730013_a_at) / RFU EBF3 (11725865_a_at) / Fold change /veh EBF3 (11725865_a_at) / RFU CAMK2N1 (11719241_x_at) / Fold change /veh CAMK2N1 (11719241_x_at) / RFU C5orf56 (11738088_a_at) / Fold change /veh C5orf56 (11738088_a_at) / RFU OLFML3 (11715873_a_at) / Fold change /veh OLFML3 (11715873_a_at) / RFU LOC100653217 /// NTM (11731650_a_at) / Fold change /veh LOC100653217 /// NTM (11731650_a_at) / RFU MAPK11 (11762145_a_at) / Fold change /veh MAPK11 (11762145_a_at) / RFU FIZ1 (11724087_x_at) / Fold change /veh FIZ1 (11724087_x_at) / RFU OASL (11726364_x_at) / Fold change /veh OASL (11726364_x_at) / RFU SOX15 (11748057_x_at) / Fold change /veh SOX15 (11748057_x_at) / RFU CD79A (11719716_a_at) / Fold change /veh CD79A (11719716_a_at) / RFU HIST1H1D (11736915_at) / Fold change /veh HIST1H1D (11736915_at) / RFU CASKIN2 (11723855_a_at) / Fold change /veh CASKIN2 (11723855_a_at) / RFU LOC730098 (11760151_x_at) / Fold change /veh LOC730098 (11760151_x_at) / RFU OR4N2 (11742367_at) / Fold change /veh OR4N2 (11742367_at) / RFU PRRT2 (11749266_a_at) / Fold change /veh PRRT2 (11749266_a_at) / RFU SNX32 (11753110_a_at) / Fold change /veh SNX32 (11753110_a_at) / RFU CDHR5 (11726645_a_at) / Fold change /veh CDHR5 (11726645_a_at) / RFU RCAN1 (11760418_a_at) / Fold change /veh RCAN1 (11760418_a_at) / RFU FAM167A (11723789_a_at) / Fold change /veh FAM167A (11723789_a_at) / RFU FAM26E (11764081_at) / Fold change /veh FAM26E (11764081_at) / RFU ISYNA1 (11749810_s_at) / Fold change /veh ISYNA1 (11749810_s_at) / RFU ACY1 (11761880_at) / Fold change /veh ACY1 (11761880_at) / RFU 11764098_at / Fold change /veh 11764098_at / RFU SAMD14 (11745864_x_at) / Fold change /veh SAMD14 (11745864_x_at) / RFU NPB (11741838_a_at) / Fold change /veh NPB (11741838_a_at) / RFU TMPRSS6 (11731388_a_at) / Fold change /veh TMPRSS6 (11731388_a_at) / RFU KRTAP10-2 (11738614_at) / Fold change /veh KRTAP10-2 (11738614_at) / RFU ARHGAP8 /// PRR5-ARHGAP8 (11727945_x_at) / Fold change /veh ARHGAP8 /// PRR5-ARHGAP8 (11727945_x_at) / RFU KRTAP5-7 /// NADSYN1 (11734609_at) / Fold change /veh KRTAP5-7 /// NADSYN1 (11734609_at) / RFU RASL12 (11751679_a_at) / Fold change /veh RASL12 (11751679_a_at) / RFU CDKN2B (11736163_a_at) / Fold change /veh CDKN2B (11736163_a_at) / RFU PRF1 (11729649_at) / Fold change /veh PRF1 (11729649_at) / RFU, ZNF638 /// ZNF638-IT1 / Fold change vs veh, ZNF638 /// ZNF638-IT1 / RFU, PANK3 / Fold change vs veh, PANK3 / RFU, SH3YL1 / Fold change vs veh, SH3YL1 / RFU, ZEB2 / Fold change vs veh, ZEB2 / RFU, NRIP1 / Fold change vs veh, NRIP1 / RFU, PTTG1IP / Fold change vs veh, PTTG1IP / RFU, CAPN2 / Fold change vs veh, CAPN2 / RFU, MED14 / Fold change vs veh, MED14 / RFU, SNORA58 / Fold change vs veh, SNORA58 / RFU, C1orf63 / Fold change vs veh, C1orf63 / RFU, LRRFIP1 / Fold change vs veh, LRRFIP1 / RFU, NDUFAF7 / Fold change vs veh, NDUFAF7 / RFU, SLC12A2 / Fold change vs veh, SLC12A2 / RFU, IBTK / Fold change vs veh, IBTK / RFU, ESF1 / Fold change vs veh, ESF1 / Fold change vs veh, TMEM50B / RFU, TAOK1 / Fold change vs veh, TAOK1 / RFU, ACBD3 / Fold change vs veh, ACBD3 / RFU, TMA16 / Fold change vs veh, TMA16 / RFU, RWDD3 / Fold change vs veh, RWDD3 / RFU, BCAT1 / Fold change vs veh, BCAT1 / RFU, EDEM3 / Fold change vs veh, EDEM3 / RFU, TMEM33 / Fold change vs veh, TMEM33 / RFU, WDR75 / Fold change vs veh, WDR75 / RFU, AHCTF1 / Fold change vs veh, AHCTF1 / RFU, TFRC / Fold change vs veh, TFRC / RFU, ZDHHC17 / Fold change vs veh, ZDHHC17 / RFU, NOM1 / Fold change vs veh, NOM1 / RFU, ARL8B / Fold change vs veh, ARL8B / RFU, ZBTB11 / Fold change vs veh, ZBTB11 / RFU, TAMM41 / Fold change vs veh, TAMM41 / RFU, KIAA1704 /// LOC100996395 / Fold change vs veh, KIAA1704 /// LOC100996395 / RFU, ING1 / Fold change vs veh, ING1 / RFU, TRMT61B / Fold change vs veh, TRMT61B / RFU, FUBP3 / Fold change vs veh, FUBP3 / RFU, TP53 / Fold change vs veh, TP53 / RFU, TNKS2 / Fold change vs veh, TNKS2 / RFU, ZFP14 / Fold change vs veh, ZFP14 / RFU, ACTR2 / Fold change vs veh, ACTR2 / RFU, PPP3R1 / Fold change vs veh, PPP3R1 / RFU, PIK3R1 / Fold change vs veh, PIK3R1 / RFU, HNRNPA1 / Fold change vs veh, HNRNPA1 / RFU, RNF170 / Fold change vs veh, RNF170 / RFU, ZNF28 / Fold change vs veh, ZNF28 / RFU, RNGTT / Fold change vs veh, RNGTT / RFU, OGT / Fold change vs veh, OGT / RFU, BRD1 / Fold change vs veh, BRD1 / RFU, MARS / Fold change vs veh, MARS / RFU, ZNF655 / Fold change vs veh, ZNF655 / RFU, FAHD1 / Fold change vs veh, FAHD1 / RFU, BDP1 / Fold change vs veh, BDP1 / RFU, LRRCC1 / Fold change vs veh, LRRCC1 / RFU, ARID1A / Fold change vs veh, ARID1A / RFU, ZNF146 / Fold change vs veh, ZNF146 / RFU, ZNF330 / Fold change vs veh, ZNF330 / RFU, GPN3 / Fold change vs veh, GPN3 / RFU, C9orf123 / Fold change vs veh, C9orf123 / RFU, N4BP2L2 / Fold change vs veh, N4BP2L2 / RFU, ARFIP1 / Fold change vs veh, ARFIP1 / RFU, FAM179B / Fold change vs veh, FAM179B / RFU, BCL10 / Fold change vs veh, BCL10 / RFU, UHRF1BP1L / Fold change vs veh, UHRF1BP1L / RFU, BET1 / Fold change vs veh, BET1 / RFU, CNOT2 / Fold change vs veh, CNOT2 / RFU, ZNF268 / Fold change vs veh, ZNF268 / Fold change vs veh, ZNF507 / RFU, DGCR2 / Fold change vs veh, DGCR2 / RFU, WDSUB1 / Fold change vs veh, WDSUB1 / Fold change vs veh, HSP90B1 /// MIR3652 / RFU, ADSS / Fold change vs veh, ADSS / RFU, GK / Fold change vs veh, GK / RFU, ZNF148 / Fold change vs veh, ZNF148 / RFU, TAF9 / Fold change vs veh, TAF9 / RFU, SLC1A5 / Fold change vs veh, SLC1A5 / RFU, SLMO2 / Fold change vs veh, SLMO2 / RFU, ABCC4 / Fold change vs veh, ABCC4 / RFU, LOC101060439 /// RAP1B / Fold change vs veh, LOC101060439 /// RAP1B / RFU, RFX7 / Fold change vs veh, RFX7 / RFU, GTPBP10 / Fold change vs veh, GTPBP10 / RFU, CNEP1R1 / Fold change vs veh, CNEP1R1 / RFU, BIVM-ERCC5 /// ERCC5 / Fold change vs veh, BIVM-ERCC5 /// ERCC5 / RFU, ILF3 / Fold change vs veh, ILF3 / RFU 11762660_at / Fold change /veh 11762660_at / RFU VCAN (11757783_s_at) / Fold change /veh VCAN (11757783_s_at) / RFU DDX43 (11728927_at) / Fold change /veh DDX43 (11728927_at) / RFU KRT8 (11758188_x_at) / Fold change /veh KRT8 (11758188_x_at) / RFU NKD1 (11759106_at) / Fold change /veh NKD1 (11759106_at) / RFU SRD5A1 (11742802_a_at) / Fold change /veh SRD5A1 (11742802_a_at) / RFU TPSAB1 /// TPSB2 (11721975_s_at) / Fold change /veh TPSAB1 /// TPSB2 (11721975_s_at) / RFU GSTM3 (11746129_a_at) / Fold change /veh GSTM3 (11746129_a_at) / RFU IL23R (11737362_x_at) / Fold change /veh IL23R (11737362_x_at) / RFU TMEM51 (11727254_a_at) / Fold change /veh TMEM51 (11727254_a_at) / RFU PIWIL2 (11732686_x_at) / Fold change /veh PIWIL2 (11732686_x_at) / RFU ORM1 (11744905_x_at) / Fold change /veh ORM1 (11744905_x_at) / RFU CCDC152 (11743942_at) / Fold change /veh CCDC152 (11743942_at) / RFU ECM1 (11717891_a_at) / Fold change /veh ECM1 (11717891_a_at) / RFU IL23R (11748794_a_at) / Fold change /veh IL23R (11748794_a_at) / RFU TNFAIP8L3 (11732012_x_at) / Fold change /veh TNFAIP8L3 (11732012_x_at) / RFU MBOAT4 (11741988_at) / Fold change /veh MBOAT4 (11741988_at) / RFU 11764193_at / Fold change /veh 11764193_at / RFU TMEM53 (11763286_at) / Fold change /veh TMEM53 (11763286_at) / RFU MAGEB2 (11727129_at) / Fold change /veh MAGEB2 (11727129_at) / RFU TMEM200A (11744735_a_at) / Fold change /veh TMEM200A (11744735_a_at) / RFU CCDC152 (11751479_a_at) / Fold change /veh CCDC152 (11751479_a_at) / RFU FAM211A (11726209_a_at) / Fold change /veh FAM211A (11726209_a_at) / RFU RGS16 (11746705_a_at) / Fold change /veh RGS16 (11746705_a_at) / RFU VCAN (11755009_s_at) / Fold change /veh VCAN (11755009_s_at) / RFU RHOB (11743442_s_at) / Fold change /veh RHOB (11743442_s_at) / RFU RGS16 (11720943_a_at) / Fold change /veh RGS16 (11720943_a_at) / RFU RGS16 (11720944_at) / Fold change /veh RGS16 (11720944_at) / RFU, VPS4B / Fold change vs veh, VPS4B / RFU, CREB1 / Fold change vs veh, CREB1 / RFU, DNAJC13 / Fold change vs veh, DNAJC13 / RFU, GNAQ / Fold change vs veh, GNAQ / RFU, CDK5R1 / Fold change vs veh, CDK5R1 / RFU, ZRANB3 / Fold change vs veh, ZRANB3 / RFU, CUL4A / Fold change vs veh, CUL4A / RFU, CCNY / Fold change vs veh, CCNY / RFU, UFL1 / Fold change vs veh, UFL1 / RFU, COG3 / Fold change vs veh, COG3 / RFU, DIAPH2 / Fold change vs veh, DIAPH2 / RFU, SKA2 / Fold change vs veh, SKA2 / RFU, AFF3 / Fold change vs veh, AFF3 / RFU, LMF1 / Fold change vs veh, LMF1 / RFU, IPO11 / Fold change vs veh, IPO11 / RFU, DFFB / Fold change vs veh, DFFB / RFU, FOXP1 / Fold change vs veh, FOXP1 / RFU, CARD8 / Fold change vs veh, CARD8 / RFU, STRN3 / Fold change vs veh, STRN3 / RFU, ADK / Fold change vs veh, ADK / RFU, RASSF2 / Fold change vs veh, RASSF2 / RFU, WIPF1 / Fold change vs veh, WIPF1 / RFU, LARP1B / Fold change vs veh, LARP1B / RFU, RASA1 / Fold change vs veh, RASA1 / RFU, RB1 / Fold change vs veh, RB1 / RFU, PPFIA1 / Fold change vs veh, PPFIA1 / RFU, MAT2A / Fold change vs veh, MAT2A / RFU, CCT5 / Fold change vs veh, CCT5 / RFU, WDR92 / Fold change vs veh, WDR92 / RFU, CUX1 / Fold change vs veh, CUX1 / RFU, TTC7A / Fold change vs veh, TTC7A / RFU, TMEM135 / Fold change vs veh, TMEM135 / RFU, DEPTOR / Fold change vs veh, DEPTOR / RFU, CPM / Fold change vs veh, CPM / RFU, DNAJB6 / Fold change vs veh, DNAJB6 / RFU, CACNA2D3 / Fold change vs veh, CACNA2D3 / RFU, DTX4 / Fold change vs veh, DTX4 / RFU, TFCP2 / Fold change vs veh, TFCP2 / RFU, GMCL1 /// GMCL1P1 / Fold change vs veh, GMCL1 /// GMCL1P1 / RFU, AEBP2 / Fold change vs veh, AEBP2 / RFU, SNHG1 /// SNORD22 /// SNORD25 /// SNORD26 /// SNORD27 /// SNORD28 /// SNORD29 /// SNORD31 / Fold change vs veh, SNHG1 /// SNORD22 /// SNORD25 /// SNORD26 /// SNORD27 /// SNORD28 /// SNORD29 /// SNORD31 / Fold change (Aza/veh), C12orf56 (ProbeSet 11735607_a_at) / Fold change (ACY-1035/veh), C12orf56 (ProbeSet 11735607_a_at) / Fold change (Aza/veh), FGFR1OP (ProbeSet 11751329_s_at) / Fold change (ACY-1035/veh), FGFR1OP (ProbeSet 11751329_s_at) / Fold change (Aza/veh), VPS36 (ProbeSet 11739960_a_at) / Fold change (ACY-1035/veh), VPS36 (ProbeSet 11739960_a_at) / RFU SYPL1 (11715823_x_at) / Fold change /veh SYPL1 (11715823_x_at) / RFU IGFBP7 (11715501_s_at) / Fold change /veh IGFBP7 (11715501_s_at) / RFU REEP3 (11722064_at) / Fold change /veh REEP3 (11722064_at) / RFU IGLL1 (11728026_x_at) / Fold change /veh IGLL1 (11728026_x_at): dose or concentration left out as unconfirmed
Details: ProbeSet 11732281_s_at; LIST D

In the case of Nc1ncn([C@@H]2O[C@H](CO)[C@@H](O)[C@H]2O)c(=O)n1 [azacitidine], the “Fold change vs veh, FOXP1” value is reported as 0.63.
